Measurements published in ChEMBL document CHEMBL4616591, “Propargylamine-derived multi-target directed ligands for Alzheimer's disease therapy” (Bioorg Med Chem Lett, 2020).
pIC50: −log10 of the molar value.

What was measured:
[1] = molecular target: Acetylcholinesterase (Torpedo californica, UniProt P04058); assay: Inhibition of Torpedo californica AChE using acetylthiocholine chloride as substrate peincubated for 15 mins followed by substrate addition measured after 5 mins by Ellman's method; parameters: species or system Tetronarce californica
Chain of Acetylcholinesterase (Torpedo californica, UniProt P04058) (P04058 whole entry): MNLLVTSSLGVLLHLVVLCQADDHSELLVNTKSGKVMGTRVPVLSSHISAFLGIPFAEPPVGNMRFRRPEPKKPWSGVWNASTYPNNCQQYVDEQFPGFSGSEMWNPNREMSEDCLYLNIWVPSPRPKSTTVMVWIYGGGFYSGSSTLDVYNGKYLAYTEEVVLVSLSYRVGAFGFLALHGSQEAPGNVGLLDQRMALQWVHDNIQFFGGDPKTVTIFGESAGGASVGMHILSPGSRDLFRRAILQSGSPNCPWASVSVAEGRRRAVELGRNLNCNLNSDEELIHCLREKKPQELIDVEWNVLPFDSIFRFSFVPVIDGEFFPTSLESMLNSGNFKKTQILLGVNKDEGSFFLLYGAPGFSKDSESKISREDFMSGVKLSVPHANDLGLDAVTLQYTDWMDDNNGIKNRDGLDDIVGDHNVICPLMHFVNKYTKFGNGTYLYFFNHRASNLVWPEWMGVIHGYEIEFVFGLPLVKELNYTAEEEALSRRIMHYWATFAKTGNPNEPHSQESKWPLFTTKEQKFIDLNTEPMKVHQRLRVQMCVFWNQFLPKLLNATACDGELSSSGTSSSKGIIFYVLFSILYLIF

[2] = molecular target: T1, Amine oxidase [flavin-containing] A (Homo sapiens, UniProt P21397); assay: Inhibition of human MAO A
T1 sequence (P21397 whole entry): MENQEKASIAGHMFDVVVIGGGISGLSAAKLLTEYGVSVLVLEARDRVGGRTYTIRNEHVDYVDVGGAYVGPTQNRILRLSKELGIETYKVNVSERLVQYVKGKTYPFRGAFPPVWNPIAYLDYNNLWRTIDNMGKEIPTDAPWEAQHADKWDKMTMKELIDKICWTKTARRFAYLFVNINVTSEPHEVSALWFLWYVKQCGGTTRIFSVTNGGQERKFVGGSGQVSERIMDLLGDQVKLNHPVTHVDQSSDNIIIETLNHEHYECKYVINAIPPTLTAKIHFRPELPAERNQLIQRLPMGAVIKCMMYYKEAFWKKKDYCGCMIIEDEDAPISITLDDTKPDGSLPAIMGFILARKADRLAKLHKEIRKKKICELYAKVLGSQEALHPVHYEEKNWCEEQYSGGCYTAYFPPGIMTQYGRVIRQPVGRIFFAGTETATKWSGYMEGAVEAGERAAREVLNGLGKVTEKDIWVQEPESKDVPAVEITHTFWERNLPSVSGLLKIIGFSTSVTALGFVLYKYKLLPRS

[3] = molecular target: T2, Amine oxidase [flavin-containing] B (Homo sapiens, UniProt P27338); assay: Inhibition of human MAO B
T2 sequence (P27338 whole entry): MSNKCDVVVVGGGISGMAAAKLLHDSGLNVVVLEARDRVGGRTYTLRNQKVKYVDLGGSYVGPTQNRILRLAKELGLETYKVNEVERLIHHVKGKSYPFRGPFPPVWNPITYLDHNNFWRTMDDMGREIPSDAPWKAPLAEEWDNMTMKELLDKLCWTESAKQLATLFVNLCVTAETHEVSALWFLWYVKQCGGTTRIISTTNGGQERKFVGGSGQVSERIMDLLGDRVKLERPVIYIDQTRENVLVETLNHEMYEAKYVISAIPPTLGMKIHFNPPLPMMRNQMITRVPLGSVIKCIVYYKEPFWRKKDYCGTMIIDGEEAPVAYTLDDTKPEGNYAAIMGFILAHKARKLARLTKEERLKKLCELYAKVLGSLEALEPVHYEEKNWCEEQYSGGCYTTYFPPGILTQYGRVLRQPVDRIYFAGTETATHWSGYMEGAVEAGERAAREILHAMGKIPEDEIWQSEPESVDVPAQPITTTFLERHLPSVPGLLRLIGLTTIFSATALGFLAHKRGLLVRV

[4] = molecular target: T3, Cholinesterase (Equus caballus, UniProt P81908); assay: Inhibition of equine serum BuChE using butylthiocholine chloride as substrate peincubated for 15 mins followed by substrate addition measured at 1 min interval by Ellman's method
T3 sequence (P81908 whole entry): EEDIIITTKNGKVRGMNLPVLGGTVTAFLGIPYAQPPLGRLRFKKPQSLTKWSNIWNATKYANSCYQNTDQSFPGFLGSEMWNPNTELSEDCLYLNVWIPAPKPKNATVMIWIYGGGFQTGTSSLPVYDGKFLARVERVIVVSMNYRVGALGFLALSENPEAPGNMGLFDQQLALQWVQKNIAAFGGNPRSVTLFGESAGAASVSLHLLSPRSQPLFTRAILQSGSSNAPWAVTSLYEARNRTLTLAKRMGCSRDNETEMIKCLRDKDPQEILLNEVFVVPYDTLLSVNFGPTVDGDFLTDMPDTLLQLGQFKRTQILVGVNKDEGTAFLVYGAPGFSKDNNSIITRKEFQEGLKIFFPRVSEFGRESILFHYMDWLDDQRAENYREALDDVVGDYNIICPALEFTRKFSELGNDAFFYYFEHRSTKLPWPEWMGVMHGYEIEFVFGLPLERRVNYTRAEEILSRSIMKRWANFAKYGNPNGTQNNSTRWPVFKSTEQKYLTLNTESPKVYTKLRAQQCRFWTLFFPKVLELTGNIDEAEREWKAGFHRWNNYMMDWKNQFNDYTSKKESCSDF

[5] = molecular target: T4, Acetylcholinesterase (Electrophorus electricus, UniProt O42275)
T4 sequence (O42275 whole entry): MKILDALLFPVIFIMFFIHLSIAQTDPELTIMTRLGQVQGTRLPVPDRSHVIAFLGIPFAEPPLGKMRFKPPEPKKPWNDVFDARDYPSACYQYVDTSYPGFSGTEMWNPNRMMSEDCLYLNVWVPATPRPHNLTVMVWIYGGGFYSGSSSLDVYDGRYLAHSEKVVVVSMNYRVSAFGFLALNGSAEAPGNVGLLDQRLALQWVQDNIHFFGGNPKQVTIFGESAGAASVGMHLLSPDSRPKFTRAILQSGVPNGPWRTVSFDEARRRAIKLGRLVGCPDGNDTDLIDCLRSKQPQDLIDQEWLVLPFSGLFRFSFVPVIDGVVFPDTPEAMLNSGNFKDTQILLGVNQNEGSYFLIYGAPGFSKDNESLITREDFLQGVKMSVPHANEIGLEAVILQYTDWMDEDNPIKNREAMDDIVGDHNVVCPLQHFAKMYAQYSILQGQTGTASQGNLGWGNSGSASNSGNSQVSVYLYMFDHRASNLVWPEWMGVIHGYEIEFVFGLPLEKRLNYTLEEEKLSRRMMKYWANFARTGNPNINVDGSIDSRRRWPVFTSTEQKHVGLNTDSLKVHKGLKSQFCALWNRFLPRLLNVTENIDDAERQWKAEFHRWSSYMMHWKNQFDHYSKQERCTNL
Description: Inhibition of electric eel AChE using acetylthiocholine chloride as substrate peincubated for 15 mins followed by substrate addition measured at 1 min interval by Ellman's method

[6] = molecular target: T5, Acetylcholinesterase (Homo sapiens, UniProt P22303); assay: Inhibition of human AChE using acetylthiocholine chloride as substrate peincubated for 15 mins followed by substrate addition measured at 1 min interval by Ellman's method
T5 sequence (P22303 whole entry): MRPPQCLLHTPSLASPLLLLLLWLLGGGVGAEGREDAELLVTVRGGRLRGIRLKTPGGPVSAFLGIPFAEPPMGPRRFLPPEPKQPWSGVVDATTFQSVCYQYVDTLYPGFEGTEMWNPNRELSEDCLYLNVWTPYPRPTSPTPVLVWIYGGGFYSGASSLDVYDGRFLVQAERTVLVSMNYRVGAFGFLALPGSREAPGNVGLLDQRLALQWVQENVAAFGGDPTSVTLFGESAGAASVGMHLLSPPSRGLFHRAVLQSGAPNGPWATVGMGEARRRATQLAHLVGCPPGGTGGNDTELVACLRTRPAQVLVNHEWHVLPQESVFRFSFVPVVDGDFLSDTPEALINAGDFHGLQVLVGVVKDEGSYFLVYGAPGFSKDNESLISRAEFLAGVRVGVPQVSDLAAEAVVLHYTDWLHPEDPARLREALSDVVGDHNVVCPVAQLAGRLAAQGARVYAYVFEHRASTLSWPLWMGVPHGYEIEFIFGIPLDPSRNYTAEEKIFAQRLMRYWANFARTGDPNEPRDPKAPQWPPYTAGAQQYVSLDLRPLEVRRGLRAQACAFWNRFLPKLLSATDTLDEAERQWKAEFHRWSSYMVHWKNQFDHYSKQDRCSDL

[7] = molecular target: T6, Amine oxidase [flavin-containing] A (Rattus norvegicus, UniProt P21396); assay: In-vivo inhibition of MAO A in rat brain at 26 mg/kg, po relative to control; assay type: functional, organism-based
T6 sequence (P21396 whole entry): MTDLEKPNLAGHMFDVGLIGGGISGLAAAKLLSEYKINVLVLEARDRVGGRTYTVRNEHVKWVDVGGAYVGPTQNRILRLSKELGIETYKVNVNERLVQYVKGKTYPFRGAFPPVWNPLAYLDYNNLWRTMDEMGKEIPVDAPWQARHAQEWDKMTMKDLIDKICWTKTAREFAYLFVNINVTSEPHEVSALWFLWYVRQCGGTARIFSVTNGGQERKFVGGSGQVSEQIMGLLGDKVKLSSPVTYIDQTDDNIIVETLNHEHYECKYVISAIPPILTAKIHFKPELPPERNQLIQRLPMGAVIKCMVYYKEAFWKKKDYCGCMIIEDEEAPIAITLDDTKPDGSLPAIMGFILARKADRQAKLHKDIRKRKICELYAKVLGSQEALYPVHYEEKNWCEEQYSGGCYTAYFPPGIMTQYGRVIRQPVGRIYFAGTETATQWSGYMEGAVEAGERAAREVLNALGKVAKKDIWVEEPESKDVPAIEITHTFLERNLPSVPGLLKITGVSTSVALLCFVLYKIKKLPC

[8] = molecular target: T7, Amine oxidase [flavin-containing] B (Rattus norvegicus, UniProt P19643); assay: In-vivo inhibition of MAO B in rat brain at 26 mg/kg, po relative to control; assay type: functional, organism-based
T7 sequence (P19643 whole entry): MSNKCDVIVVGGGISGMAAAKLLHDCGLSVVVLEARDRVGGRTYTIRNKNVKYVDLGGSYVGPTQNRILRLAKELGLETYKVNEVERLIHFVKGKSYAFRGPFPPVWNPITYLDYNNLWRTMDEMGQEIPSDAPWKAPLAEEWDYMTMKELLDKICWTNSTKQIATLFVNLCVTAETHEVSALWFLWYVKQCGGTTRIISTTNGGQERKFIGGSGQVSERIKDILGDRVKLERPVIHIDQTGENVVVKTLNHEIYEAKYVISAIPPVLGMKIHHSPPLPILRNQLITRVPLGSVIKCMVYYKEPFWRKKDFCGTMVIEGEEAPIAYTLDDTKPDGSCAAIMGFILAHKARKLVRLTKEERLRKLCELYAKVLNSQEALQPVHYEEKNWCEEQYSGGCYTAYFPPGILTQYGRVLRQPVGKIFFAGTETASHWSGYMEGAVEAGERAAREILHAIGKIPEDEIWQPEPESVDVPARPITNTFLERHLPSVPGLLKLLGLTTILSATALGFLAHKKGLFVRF

[9] = molecular target: Cholinesterase (Homo sapiens) (UniProt P06276); conditions: 0.6 mg/kg
Chain of Cholinesterase (Homo sapiens) (P06276 whole entry): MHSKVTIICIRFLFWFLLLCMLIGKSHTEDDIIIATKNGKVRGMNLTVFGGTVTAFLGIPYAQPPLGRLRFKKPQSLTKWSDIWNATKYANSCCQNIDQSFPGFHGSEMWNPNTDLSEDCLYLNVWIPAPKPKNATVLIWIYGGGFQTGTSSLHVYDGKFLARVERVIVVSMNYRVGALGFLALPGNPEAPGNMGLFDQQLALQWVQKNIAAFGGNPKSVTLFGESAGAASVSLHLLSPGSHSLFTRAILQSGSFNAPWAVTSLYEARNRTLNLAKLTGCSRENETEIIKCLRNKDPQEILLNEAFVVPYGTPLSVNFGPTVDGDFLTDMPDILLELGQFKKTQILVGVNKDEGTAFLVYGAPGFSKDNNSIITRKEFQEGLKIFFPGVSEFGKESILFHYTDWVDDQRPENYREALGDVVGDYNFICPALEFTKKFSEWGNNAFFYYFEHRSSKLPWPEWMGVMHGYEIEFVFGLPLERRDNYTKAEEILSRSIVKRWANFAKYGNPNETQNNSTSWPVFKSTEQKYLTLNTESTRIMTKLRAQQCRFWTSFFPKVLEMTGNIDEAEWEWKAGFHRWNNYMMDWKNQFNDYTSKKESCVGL

[10] = molecular target: T5, Acetylcholinesterase; conditions: 0.6 mg/kg
[11] = molecular target: Amyloid-beta precursor protein (Homo sapiens) (UniProt P05067); assay: Inhibition of self-induced amyloid beta (1 to 42) (unknown origin) aggregation at 100 uM after 24 hrs in presence of copper by ThT fluorescence assay relative to control
Chain of Amyloid-beta precursor protein (Homo sapiens) (P05067 whole entry): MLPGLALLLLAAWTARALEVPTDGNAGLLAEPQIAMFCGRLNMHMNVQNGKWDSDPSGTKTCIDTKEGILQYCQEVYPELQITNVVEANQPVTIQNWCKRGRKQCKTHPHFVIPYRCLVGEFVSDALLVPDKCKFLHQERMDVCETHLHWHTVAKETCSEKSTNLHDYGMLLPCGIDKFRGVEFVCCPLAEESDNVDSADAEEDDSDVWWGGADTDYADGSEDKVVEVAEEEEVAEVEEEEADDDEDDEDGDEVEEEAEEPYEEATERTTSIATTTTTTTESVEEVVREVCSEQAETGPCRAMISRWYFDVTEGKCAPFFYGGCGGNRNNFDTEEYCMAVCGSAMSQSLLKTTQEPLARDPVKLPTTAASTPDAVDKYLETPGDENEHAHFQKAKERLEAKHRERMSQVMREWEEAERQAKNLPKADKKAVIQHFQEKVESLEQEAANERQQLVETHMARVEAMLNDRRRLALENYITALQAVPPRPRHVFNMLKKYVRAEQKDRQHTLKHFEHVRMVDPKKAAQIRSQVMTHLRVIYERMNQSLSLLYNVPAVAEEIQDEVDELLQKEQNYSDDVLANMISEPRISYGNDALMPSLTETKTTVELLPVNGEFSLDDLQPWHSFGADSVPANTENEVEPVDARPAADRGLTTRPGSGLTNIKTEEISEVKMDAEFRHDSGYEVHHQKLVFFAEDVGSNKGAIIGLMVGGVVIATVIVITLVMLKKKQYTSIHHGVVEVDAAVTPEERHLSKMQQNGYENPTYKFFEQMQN

[12] = molecular target: Amyloid-beta precursor protein (Homo sapiens) (UniProt P05067); assay: Inhibition of self-induced amyloid beta (1 to 42) (unknown origin) aggregation at 100 uM after 24 hrs by ThT fluorescence assay relative to control
[13] = molecular target: T4, Acetylcholinesterase; remark: listed apart in the source
Description: (§1) Inhibition of electric eel AChE by Ellman's method

[14] = molecular target: T3, Cholinesterase; assay: Inhibition of equine serum BuChE by Ellman's method
[15] = molecular target: T4, Acetylcholinesterase; remark: listed apart in the source
Description: as §1

C#CCSCC(NC(=O)CCCCCNc1c2c(nc3ccccc13)CCCC2)C(=O)Nc1nc2ccccc2s1 (stereo unspecified)
pIC50 [1]: 6.55 to 6.60

C#CCN(C)Cc1cc2cc(OCCCC3CCN(Cc4ccccc4)CC3)ccc2n1C
pIC50 [2]: 8.26 | pIC50 [3]: 6.75

C=CCSCC(NC(=O)CCCNc1c2c(nc3ccccc13)CCCC2)C(=O)Nc1nc2ccccc2s1 (stereo unspecified)
pIC50 [1]: 6.55 to 6.60

C#CCNc1c2c(nc3ccccc13)CCCC2
pIC50 [4]: 7.11 | pIC50 [5]: 6.98 to 7.29 | pIC50 [6]: 7.29

C#CCSC[C@@H](N)C(=O)NCCCCNc1c2c(nc3ccccc13)CCCC2
pIC50 [1]: 5.92

C#CCN[C@@H]1CCc2ccc(OC(=O)N(C)CC)cc21 [LADOSTIGIL]
inhibition at 26 mg/kg [7]: 70% | inhibition at 26 mg/kg [8]: 70%

C#CCN(CC#C)c1c2c(nc3cc(Cl)ccc13)CCCC2
pIC50 [4]: 5.27 | pIC50 [5]: 6.05

CCN(C)C(=O)Oc1cccc([C@H](C)N(C)C)c1
inhibition [9]: 25% | inhibition [10]: 40%

C=CCSCC(NC(=O)CCCNc1c2c(nc3cc(Cl)ccc13)CCCC2)C(=O)Nc1nc2ccccc2s1 (stereo unspecified)
inhibition [11]: 56.6% | inhibition [12]: 31.6% | pIC50 [1]: 6.55 to 6.60

C#CCN(C)Cc1cc2ccccc2oc1=O
pIC50 [13]: 4.84 to 5.56

C#CCN(CC#C)CCNc1c2c(nc3ccccc13)CCCC2
pIC50 [4]: 6.45 | pIC50 [5]: 6.47

C#CCSC[C@@H](N)C(=O)NCCCNc1c2c(nc3cc(Cl)ccc13)CCCC2
pIC50 [1]: 6.25

C#CCSCC(NC(=O)CCCCCNc1c2c(nc3cc(Cl)ccc13)CCCC2)C(=O)Nc1nc2ccccc2s1 (stereo unspecified)
pIC50 [1]: 6.55 to 6.60

C#CCSCC(NC(=O)CCCNc1c2c(nc3cc(Cl)ccc13)CCCC2)C(=O)Nc1nc2ccccc2s1 (stereo unspecified)
inhibition [11]: 37.6% | inhibition [12]: 24.1% | pIC50 [1]: 6.60

C=CCSCC(NC(=O)CCCCCNc1c2c(nc3ccccc13)CCCC2)C(=O)Nc1nc2ccccc2s1 (stereo unspecified)
inhibition [12]: 78.2% | pIC50 [1]: 6.55 to 6.60

C#CCNCCNc1c2c(nc3ccccc13)CCCC2
pIC50 [5]: 6.65

C#CCSCC(NC(=O)CCCNc1c2c(nc3ccccc13)CCCC2)C(=O)Nc1nc2ccccc2s1 (stereo unspecified)
inhibition [12]: 77.2% | pIC50 [1]: 6.55 to 6.60

C=CCSCC(NC(=O)CCCCCNc1c2c(nc3cc(Cl)ccc13)CCCC2)C(=O)Nc1nc2ccccc2s1 (stereo unspecified)
pIC50 [1]: 6.55

Nc1c2c(nc3cc(Cl)ccc13)CCCC2
pIC50 [5]: 7.63

C#CCN(C)Cc1cc2cc(OC)c(O)cc2oc1=O
pIC50 [13]: 4.84 to 5.56

C#CCNc1c2c(nc3cc(Cl)ccc13)CCCC2
pIC50 [4]: 7.08 | pIC50 [5]: 7.95 | pIC50 [6]: 8.03

C#CCN(C)c1nc(NCCCCC2CCN(Cc3ccccc3)CC2)c(C#N)cc1C#N
pIC50 [14]: 6.22 | pIC50 [15]: 8.96

C=CCSC[C@@H](N)C(=O)NCCCNc1c2c(nc3ccccc13)CCCC2
pIC50 [1]: 6.06

C#CCN(C)Cc1cc2ccc(OC)cc2oc1=O
pIC50 [13]: 4.84 to 5.56

C=CCSC[C@@H](N)C(=O)NCCCNc1c2c(nc3cc(Cl)ccc13)CCCC2
pIC50 [1]: 6.52
